Measured values from patent US10588866B2, “Stable solid lipid particle composition for improved bioavailability of lipophilic compounds for age-related diseases” (VERDURE SCIENCES, priority 2014, dated 2020).

Experiment: Single oral dose pharmacokinetics of curcumin in plasma and mesenteric lymph
Format: in vivo, Sprague-Dawley rats
Conditions: Sprague-Dawley, rat, plasma, 75 mg/kg
Method: Prior to treatment, the rats were anaesthetized followed by a surgical intervention to cannulate the mesenteric mesenteric lymph duct (for lymph collection) and the carotid artery (for blood collection). The cannulas were externalized and the rats were allowed to recover for 24 hours. Thereafter, either the curcumin suspension or the SLCP dosage form was administered via gavage. Blood (0.25 ml) was sampled prior to and 0.5, 1.0, 2.0, 3.0 and 5.0 hours after administration into vials coated with EDTA. Blood samples were centrifuged to obtain plasma and stored at <−30° C. until analysis. Mesenteric lymph (0.25 ml) was collected prior to and 1 and 5 hours after administration into vials coated with EDTA and stored at <−30° C. until analysis.
Analysis of curcumin and glucuronated curcumin was performed by HPLC with UV-detection coupled to MS according to published methods. […] The Limit of Determination was set to 2.5 ng/ml biological fluid.

Structure (SMILES): COc1cc(/C=C/C(=O)CC(=O)/C=C/c2ccc(O)c(OC)c2)ccc1O [Standard, Curcumin]
- AUC(0-t): 562 ng·h/mL
- Cmax: 190 ng/mL
